Experimental findings from PubChem BioAssay (NCI) are described below.

Common to all, as to experiment: DTP human tumour cell line panel, 48 h
Assay [1] has as its system SK-MEL-5 melanoma.
Assay [2] deals with CAKI-1 renal.
Assay [3] relates to NCI-H23 lung.
Assay [4] deals with HOP-92 NSCLC.
In assay [5] the test system is K-562 leukemia.
Assay [6] relates to SK-MEL-2 melanoma.
Assay [7] relates to HT29 colon.
In assay [8] the test system is A549 NSCLC.
For assay [9], the system named is IGROV1 ovarian.
The subject of assay [10] is SW-620 colon.

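Assay format: 96-well plates, 48-hour exposure. The concentration for 50% growth inhibition is given as GI50. TGI is the concentration that stops growth completely.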

What is called TGI is the concentration at which net growth stops. Low values mean greater sensitivity of the cells, high ones lower sensitivity of the cells. Consider `CC(=O)OCC1C(=O)OCC1C(=O)N1Cc2cc3ccccc3nc2C1` (stereo not drawn), for which the TGI in assay [1] is 23.1 µM; in assay [2], 3.16 µM; in assay [3], 14.5 µM; in [4], 3.77 µM; in assay [5] it was 9.76 µM; in [6], 22.9 µM. For the same compound, the TGI in assay [7] came to 10.3 µM; in assay [8], 30.6 µM; in assay [9], 24 µM; in assay [10] it was 1.68 µM.
As a reminder, the GI50 is the concentration at which growth is held to half of that of the control. In the case of `O=c1nc2n(-c3cccc(Cl)c3)c3ccc([N+](=O)[O-])cc3cc-2c(=O)[nH]1`, the GI50 is 5.36 µM in assay [1]; 5.71 µM in [2]; 4.94 µM in assay [3]; 7.75 µM in assay [4]; 17.1 µM in [5]; over 25 µM in assay [6]. Further, the GI50 in assay [7] was 9.06 µM; in assay [8], 12.7 µM; in [9], 17.4 µM; in assay [10], 2.3 µM. The TGI in assay [1] was 12.8 µM; in assay [2], 16 µM; in assay [3], 10.6 µM; in assay [4], 24.7 µM; in assay [5] it was over 25 µM; in assay [6] it was over 25 µM. Also, the TGI in [7], in assay [8], in assay [9] and in [10] was over 25 µM each time.
Regarding `COc1ccc2c(c1)[C@@H](NC(C)=O)CCc1cc(OC)c(OC)c(OC)c1-2`, the total growth inhibition concentration (TGI) is 0.0298 µM in assay [1]; 99 µM in assay [2]; 2.88 µM in assay [3]; over 9.04 µM in assay [4]; over 100 µM in assay [5]; over 21.5 µM in assay [6]. Also, the TGI in assay [7] is 0.124 µM; in assay [8], over 100 µM; in assay [9] it was over 100 µM; in assay [10], over 100 µM.
For the compound `COc1ccc(-c2nc3sc(-c4cc(OC)c(OC)c(OC)c4)nn3c2/C=C2/C(=O)Nc3ccc(F)cc32)cc1`, the GI50 in assay [1] was 1.64 µM; in assay [2], 4.48 µM; in assay [3], 4.25 µM; in assay [4], 2.02 µM; in [5], 13.1 µM; in [6], 5.58 µM. Also, the GI50 was 2.18 µM in assay [7], 2.13 µM in assay [8], 3.39 µM in assay [9] and 3.22 µM in [10]. Besides, the TGI in assay [1] is 3.65 µM; in assay [2], 20 µM; in assay [3], 21.5 µM; in assay [4], 9.48 µM; in [5] it was over 100 µM; in assay [6], 17.6 µM. Further, the TGI in assay [7] is 4.68 µM; in [8] it was 5.26 µM; in assay [9], 12.7 µM; in assay [10] it was 14.8 µM.
Regarding `NC1=C(O)c2cccc3cccc(c23)C1=O`, the TGI in [1], in assay [2], in assay [3], in assay [4], in assay [5] and in assay [6] was over 100 µM throughout. Moreover, the concentration for total growth inhibition (TGI) in [7], in [8], in assay [9] and in assay [10] was over 100 µM throughout.
With `CC1CCCCCC(=O)c2c(O)cc(O)cc2CC(=O)O1` (stereo not drawn), the total growth inhibition concentration (TGI) in [1], in assay [2], in [3], in [4], in assay [5] and in [6] was over 100 µM throughout. Moreover, the TGI in [7], in assay [8], in assay [9] and in [10] was over 100 µM each time.
On to `CN(C)CCC(N)(P(=O)([O-])[O-])P(=O)([O-])[O-].N.N.[Pt+2]`, for which the GI50 in [1], in assay [2], in [4], in assay [5], in assay [6] and in assay [7] was over 100 µM each time. The GI50 in [8], in assay [9] and in [10] was over 100 µM throughout. For the same compound, the TGI in [1], in assay [2], in assay [4], in [5], in assay [6] and in assay [7] was over 100 µM in each case. Further, the concentration for total growth inhibition (TGI) in assay [8], in [9] and in assay [10] was over 100 µM each time.
Regarding `O=C(O)c1ccc(N(/C=C/C(=O)C(F)(F)F)Cc2ccc(Cl)cc2)cc1`, the GI50 is 25 µM in assay [1]; 34.6 µM in assay [2]; 24.7 µM in [3]; 19.5 µM in assay [4]; 19.1 µM in assay [6]; 37 µM in assay [7]. Moreover, the figures for the GI50 in assay [8], in [9] and in assay [10] were 34.9 µM, 20.3 µM and 35.9 µM, respectively. Also, the TGI in assay [1] was 81.1 µM; in assay [2], over 100 µM; in assay [3] it was 64.8 µM; in [4], 82.4 µM; in [6], 53.3 µM; in assay [7], over 100 µM. Also, the results for the TGI in assay [8], in assay [9] and in [10] were over 100 µM, 48.9 µM and over 100 µM, respectively.
Regarding `O=c1c2ccccc2nc(-c2cccc([N+](=O)[O-])c2)n1O`, the TGI in assay [1] was over 100 µM; in [2], over 100 µM; in assay [3], over 100 µM; in assay [4] it was over 75.1 µM; in [6], 91.1 µM; in [7], over 100 µM. Moreover, the concentration for total growth inhibition (TGI) in [8], in assay [9] and in [10] was over 100 µM each time.
With `NS(=O)(=O)c1ccc(N(/C=C/C(=O)C(F)(F)F)CC(=O)c2ccc(F)cc2)cc1`, the GI50 was 22.6 µM in assay [2]; 20.4 µM in assay [3]; 21.3 µM in assay [4]; 14 µM in [5]; 26.1 µM in [6]; 35.2 µM in [7]. The GI50 is 44.2 µM in [8], 24.8 µM in [9] and 21.5 µM in assay [10]. The TGI in [2] is 56.9 µM; in assay [3] it was 57.7 µM; in assay [4], 60.9 µM; in assay [5], 54.6 µM; in assay [6], 55.2 µM; in [7] it was over 100 µM. Also, the values for the TGI in [8], in [9] and in [10] were over 100 µM, 52.5 µM and 46.6 µM, respectively.
